Literature values, collected in patent US20120309684A1, “CONJUGATES FOR DELIVERY OF BIOLOGICALLY ACTIVE COMPOUNDS” (ISIS INNOVATION LIMITED, priority 2009, published 2012).

Columns and labels:
dystrophin protein = details: seven weekly doses at 100 mg/kg, systemic intravenous
[1] = tested on: cardiac compared with skeletal muscle

Substance: GGCCAAACCTCGGCTTACCTGAAAT (all phosphorodiamidate morpholino (PMO); Tested constructs carry cell-penetrating peptides (B, MSP) conjugated to PMO)
- restoration of dystrophin protein with naked PMO (dystrophin protein): moderate restoration

Substance: ASSLNIA (Sequence for inclusion in target-delivery peptide) [MSP]
- lower binding affinity for cardiac compared with skeletal muscle [1]: 2-3 fold
